This note sets out measurements from patent US20200369728A1, “PEPTIDOMIMETIC MACROCYCLES AND USES THEREOF” (Aileron Therapeutics, Inc., priority 2015, published 2020).

As a reminder, the EC50 is the concentration that produces a half-maximal response.

Assay [1] relates to Caspase 3. The experiment in a line: Caspase 3 detection assay in SJSA1 cells. Format: cell-based. The conditions noted are these: SJSA1, 48 h, Caspase 3 activation over DMSO-treated cells.
Assay [2] concerns RKO. The experiment in a line: Cell viability assay (MTT), RKO. The note with it: read-out: RKO EC50 (72 h).
Assay [3] has as its system SJSA-1 cells. The experiment in a line: Cell lysis by peptidomimetic macrocycles (LDH release). It counts as cell-based. The note with it: SJSA-1, 1 h. In a few lines: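 Membrane lysis measured as supernatant LDH after a 1 h, 37 °C exposure of SJSA-1 cells, held in RPMI with 1% FBS, to macrocycles at final 6.25-50 μM with 0.5% DMSO. Lytic references were 10 μM melittin and 1% Triton X-100; DMSO alone served as non-lytic control.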

Bridge positions count the residues as written; N and C are the ends. Square brackets hold non-standard residues; d marks the D form. Peptide text beside a SMILES is read from it. R8 = C=CCCCCCC[C@@](C)(N)C(=O)O; S5 = C=CCCC[C@](C)(N)C(=O)O; Aib = CC(C)(N)C(=O)O

Regarding `CC[C@H](C)[C@H](NC(=O)[C@H](C)NC(=O)[C@H](C)NC(=O)[C@]1(C)CCCC=CCCCCCC[C@@](C)(NC(=O)[C@H](Cc2ccccc2)NC(=O)[C@@H](NC(=O)[C@H](CC(C)C)NC(C)=O)[C@@H](C)O)C(=O)N[C@@H](C)C(=O)N[C@@H](Cc2ccc(O)cc2)C(=O)N[C@@H](Cc2c[nH]c3ccccc23)C(=O)N[C@@H](C)C(=O)N[C@@H](CCC(N)=O)C(=O)N[C@@H](CC(C)C)C(=O)N1)C(=O)N[C@H](CC(C)C)C(N)=O` (single isomer, unassigned) [compound 81], in assay [1], the “caspase 0.3 μM” value worked out at 1, the “caspase 3 μM” value amounted to 1, the “caspase 10 μM” value was 6 and the “caspase 30 μM” value is listed as 21. Also, the EC50 in assay [2] was in the range of 5 to 15 µM. Also, in assay [3], the “6.25 μM % Lysed cells (1 h LDH)” value stood at 1%, the “25 μM % Lysed cells (1 h LDH)” value was 0% and the “50 μM % Lysed cells (1 h LDH)” value stood at 0%.
For the compound `CC(=O)N[C@@H](CC(C)C)C(=O)N[C@H](C(=O)N[C@@H](Cc1ccccc1)C(=O)N[C@]1(C)CCCCCCC=CCCC[C@@](C)(C(=O)N[C@@H](CO)C(=O)N[C@@H](C)C(=O)N[C@@H](C)C(N)=O)NC(=O)[C@H](C2CCCC2)NC(=O)[C@H](CCC(N)=O)NC(=O)[C@H](C)NC(=O)[C@H](Cc2c[nH]c3ccccc23)NC(=O)[C@H](Cc2ccc(O)cc2)NC(=O)[C@H](CCC(=O)O)NC1=O)[C@@H](C)O` (single isomer, unassigned) [compound 150], the EC50 in assay [2] lay in the range of 15 to 30 µM. For the same compound, in assay [3], the “6.25 μM % Lysed cells (1 h LDH)” value is listed as −1%, the “25 μM % Lysed cells (1 h LDH)” value is given as 0% and the “50 μM % Lysed cells (1 h LDH)” value was 2%.
`CC(=O)N[C@@H](CCC(=O)O)C(=O)N[C@H](C(=O)N[C@@H](Cc1ccccc1)C(=O)N[C@]1(C)CCCCCCC=CCCC[C@@](C)(C(=O)N[C@@H](C)C(=O)N[C@@H](C)C(=O)N[C@@H](C)C(=O)N[C@@H](C)C(=O)N[C@@H](C)C(=O)N[C@H](C)C(N)=O)NC(=O)[C@H](CC(C)C)NC(=O)[C@H](CCC(N)=O)NC(=O)[C@H](C)NC(=O)[C@H](Cc2c[nH]c3ccccc23)NC(=O)[C@H](Cc2ccc(O)cc2)NC(=O)[C@H](CCC(=O)O)NC1=O)[C@@H](C)O` (single isomer, unassigned) [compound 341]: in assay [1], the “caspase 0.3 μM” value stood at 3, the “caspase 1 μM” value came to 8, the “caspase 3 μM” value came out at 11 and the “caspase 10 μM” value worked out at 14. Moreover, in assay [1], the “caspase 30 μM” value was 21. Further, the EC50 in assay [2] lay within 15 to 30 µM. In assay [3], the “6.25 μM % Lysed cells (1 h LDH)” value is reported as 0%, the “25 μM % Lysed cells (1 h LDH)” value stood at 0% and the “50 μM % Lysed cells (1 h LDH)” value came out at 0%.
In the case of `CC(=O)N[C@@H](CC(C)C)C(=O)N[C@H](C(=O)N[C@@H](Cc1ccccc1)C(=O)N[C@]1(C)CCCCCCC=CCCC[C@@](C)(C(=O)N[C@@H](CO)C(=O)N[C@@H](C)C(=O)N[C@@H](C)C(=O)N[C@H](C)C(N)=O)NC(=O)[C@H](CC2CCC2)NC(=O)[C@H](CCC(N)=O)NC(=O)[C@H](C)NC(=O)[C@H](Cc2c[nH]c3ccccc23)NC(=O)[C@H](Cc2ccc(O)cc2)NC(=O)[C@H](CCC(=O)O)NC1=O)[C@@H](C)O` (single isomer, unassigned) [compound 353], in assay [1], the “caspase 0.3 μM” value turned out to be 1, the “caspase 1 μM” value is 2, the “caspase 3 μM” value was 5 and the “caspase 10 μM” value is recorded as 7. Also, the “caspase 30 μM” value in assay [1] is listed as 30. Moreover, the concentration for a half-maximal effect (EC50) in assay [2] was 15 to 30 µM. Moreover, in assay [3], the “6.25 μM % Lysed cells (1 h LDH)” value came out at 0%, the “25 μM % Lysed cells (1 h LDH)” value came out at 0% and the “50 μM % Lysed cells (1 h LDH)” value is 0%.
As to `CC(=O)N[C@@H](C)C(=O)N[C@@H](CC(C)C)C(=O)N[C@H](C(=O)N[C@@H](Cc1ccccc1)C(=O)N[C@]1(C)CCCCCCC=CCCC[C@@](C)(C(=O)N[C@@H](CO)C(=O)N[C@@H](C)C(=O)N[C@@H](C)C(=O)N[C@H](C)C(N)=O)NC(=O)[C@H](CC2CCC2)NC(=O)[C@H](CCC(N)=O)NC(=O)[C@H](C)NC(=O)[C@H](Cc2c[nH]c3ccccc23)NC(=O)[C@H](Cc2ccc(O)cc2)NC(=O)[C@H](CCC(=O)O)NC1=O)[C@@H](C)O` (single isomer, unassigned) [compound 355], in assay [1], the “caspase 0.3 μM” value was 1, the “caspase 1 μM” value is 4, the “caspase 3 μM” value turned out to be 11 and the “caspase 10 μM” value is on record as 13. In addition, the “caspase 30 μM” value in assay [1] is 30. Also, in assay [2], the EC50 is 15 to 30 µM. Also, in assay [3], the “6.25 μM % Lysed cells (1 h LDH)” value came to 0%, the “25 μM % Lysed cells (1 h LDH)” value is 0% and the “50 μM % Lysed cells (1 h LDH)” value was 0%.
As for `CC(=O)N[C@@H](CC(C)C)C(=O)N[C@H](C(=O)N[C@@H](Cc1ccccc1)C(=O)N[C@]1(C)CCCCCCC=CCCC[C@@](C)(C(=O)N[C@@H](CO)C(=O)N[C@@H](C)C(=O)NC(C)(C)C(N)=O)NC(=O)[C@H](CC(C)C)NC(=O)[C@H](CCC(N)=O)NC(=O)[C@H](C)NC(=O)[C@H](Cc2c[nH]c3ccccc23)NC(=O)[C@H](Cc2ccc(O)cc2)NC(=O)[C@H](C)NC1=O)[C@@H](C)O` [compound 10] (Ac-LTF[R8]AYWAQL[S5]SA[Aib]-NH2; staple 4-11), in assay [1], the “caspase 0.3 μM” value is 1, the “caspase 3 μM” value amounted to 1, the “caspase 10 μM” value is 17 and the “caspase 30 μM” value amounted to 32. Also, the EC50 in assay [2] is 5 to 15 µM.
Regarding `CC(=O)N[C@@H](CC(C)C)C(=O)N[C@H](C(=O)N[C@@H](Cc1ccccc1)C(=O)N[C@]1(C)CCCCCCC=CCCC[C@@](C)(C(=O)N[C@@H](CO)C(=O)N[C@@H](Cc2c[nH]c3ccccc23)C(=O)N[C@@H](C)C(N)=O)NC(=O)[C@H](CC(C)C)NC(=O)[C@H](CCC(N)=O)NC(=O)[C@H](C)NC(=O)[C@H](Cc2c[nH]c3ccccc23)NC(=O)[C@H](Cc2ccc(O)cc2)NC(=O)[C@H](C)NC1=O)[C@@H](C)O` (single isomer, unassigned) [compound 120], in assay [1], the “caspase 0.3 μM” value was 2, the “caspase 3 μM” value worked out at 11, the “caspase 10 μM” value was determined as 20 and the “caspase 30 μM” value amounted to 30. In assay [2], the EC50 was less than 5 µM. Also, in assay [3], the “6.25 μM % Lysed cells (1 h LDH)” value worked out at 0%, the “25 μM % Lysed cells (1 h LDH)” value is on record as 0% and the “50 μM % Lysed cells (1 h LDH)” value came out at 6%.
In the case of `CC(=O)N[C@@H](CC(C)C)C(=O)N[C@H](C(=O)N[C@@H](Cc1ccc(F)c(F)c1)C(=O)N[C@]1(C)CCCCCC/C=C/CCC[C@@](C)(C(=O)N[C@@H](CO)C(=O)N[C@@H](C)C(=O)N[C@@H](C)C(N)=O)NC(=O)[C@H](CCC(C)C)NC(=O)[C@H](CCC(N)=O)NC(=O)[C@H](C)NC(=O)[C@H](Cc2c[nH]c3ccccc23)NC(=O)[C@H](Cc2ccc(O)cc2)NC(=O)[C@H](CCC(=O)O)NC1=O)[C@@H](C)O` [compound 160], in assay [1], the “caspase 0.3 μM” value is 2, the “caspase 3 μM” value was 10, the “caspase 10 μM” value amounted to 16 and the “caspase 30 μM” value is given as 31. Besides, the EC50 in assay [2] is more than 30 µM. Also, in assay [3], the “6.25 μM % Lysed cells (1 h LDH)” value is on record as −1%, the “25 μM % Lysed cells (1 h LDH)” value is recorded as −1% and the “50 μM % Lysed cells (1 h LDH)” value is reported as 1%.
For the compound `CC[C@H](C)[C@H](NC(=O)[C@H](C)NC(=O)[C@H](C)NC(=O)[C@]1(C)CCCC=CCCCCCC[C@@](C)(NC(=O)[C@H](Cc2ccccc2)NC(=O)[C@@H](NC(=O)[C@H](CCC(=O)O)NC(C)=O)[C@@H](C)O)C(=O)N[C@@H](CCC(=O)O)C(=O)N[C@@H](Cc2c[nH]cn2)C(=O)N[C@@H](Cc2c[nH]c3ccccc23)C(=O)N[C@@H](C)C(=O)N[C@@H](CCC(N)=O)C(=O)N[C@@H](CC(C)C)C(=O)N1)C(=O)N[C@H](C)C(N)=O` (single isomer, unassigned) [compound 175], in assay [1], the “caspase 0.3 μM” value was determined as 1, the “caspase 3 μM” value is 5, the “caspase 10 μM” value was found to be 12 and the “caspase 30 μM” value is recorded as 21. Also, the EC50 in assay [2] is more than 30 µM. Also, in assay [3], the “6.25 μM % Lysed cells (1 h LDH)” value was 3%, the “25 μM % Lysed cells (1 h LDH)” value came out at 1% and the “50 μM % Lysed cells (1 h LDH)” value is 0%.
Consider `CC(=O)N[C@@H](C)C(=O)N[C@@H](C)C(=O)N[C@@H](CC(C)C)C(=O)N[C@H](C(=O)N[C@@H](Cc1ccccc1)C(=O)N[C@]1(C)CCCCCCC=CCCC[C@@](C)(C(=O)N[C@@H](CO)C(=O)N[C@@H](C)C(=O)N[C@@H](C)C(=O)N[C@@H](C)C(=O)N[C@H](C)C(N)=O)NC(=O)[C@H](CC2CCC2)NC(=O)[C@H](CCC(N)=O)NC(=O)[C@H](C)NC(=O)[C@H](Cc2c[nH]c3ccccc23)NC(=O)[C@H](Cc2ccc(O)cc2)NC(=O)[C@H](CCC(=O)O)NC1=O)[C@@H](C)O` (single isomer, unassigned) [compound 358], for which, in assay [1], the “caspase 0.3 μM” value amounted to 1, the “caspase 1 μM” value is 2, the “caspase 3 μM” value was 3 and the “caspase 10 μM” value is 6. In assay [1], the “caspase 30 μM” value is recorded as 24. The EC50 in assay [2] was in the range of 15 to 30 µM.
Consider `CC(=O)N[C@@H](CC(C)C)C(=O)N[C@H](C(=O)N[C@@H](Cc1ccccc1)C(=O)N[C@]1(C)CCCCCCC=CCCC[C@@](C)(C(=O)N[C@@H](C)C(=O)N[C@@H](Cc2c[nH]cn2)C(=O)N[C@@H](Cc2ccccc2)C(=O)N[C@@H](C)C(N)=O)NC(=O)[C@H](CC(C)C)NC(=O)[C@H](CCC(N)=O)NC(=O)[C@H](C)NC(=O)[C@H](Cc2c[nH]c3ccccc23)NC(=O)[C@H](Cc2ccc(O)cc2)NC(=O)[C@H](C)NC1=O)[C@@H](C)O` [compound 50] (Ac-LTF[R8]AYWAQL[S5]AHFA-NH2; staple 4-11), for which, in assay [1], the “caspase 3 μM” value came to 8, the “caspase 10 μM” value came to 29 and the “caspase 30 μM” value is 29. The EC50 in assay [2] is less than 5 µM.
